Test results taken from ChEMBL document CHEMBL5291721, “A preclinical secondary pharmacology resource illuminates target-adverse drug reaction associations of marketed drugs” (Nat Commun, 2023).

Tests used:
[1] = molecular target: T1, Alpha-1A adrenergic receptor (Homo sapiens, UniProt P35348); assay type: functional, cell-based
T1 sequence (P35348 whole entry): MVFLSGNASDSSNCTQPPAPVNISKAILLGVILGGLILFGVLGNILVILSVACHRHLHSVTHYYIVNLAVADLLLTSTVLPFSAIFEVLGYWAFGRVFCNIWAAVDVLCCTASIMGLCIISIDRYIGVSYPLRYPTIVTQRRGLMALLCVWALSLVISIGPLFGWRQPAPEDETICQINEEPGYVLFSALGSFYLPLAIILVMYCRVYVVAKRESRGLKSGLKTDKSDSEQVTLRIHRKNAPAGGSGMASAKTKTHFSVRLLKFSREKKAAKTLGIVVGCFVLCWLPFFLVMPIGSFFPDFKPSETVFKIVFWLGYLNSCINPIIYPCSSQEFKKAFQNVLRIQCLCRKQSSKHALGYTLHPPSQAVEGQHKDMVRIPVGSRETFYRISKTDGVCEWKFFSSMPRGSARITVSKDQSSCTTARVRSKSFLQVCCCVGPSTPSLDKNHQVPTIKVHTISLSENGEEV

[2] = molecular target: T2, Muscarinic acetylcholine receptor M2 (Homo sapiens, UniProt P08172)
T2 sequence (P08172 whole entry): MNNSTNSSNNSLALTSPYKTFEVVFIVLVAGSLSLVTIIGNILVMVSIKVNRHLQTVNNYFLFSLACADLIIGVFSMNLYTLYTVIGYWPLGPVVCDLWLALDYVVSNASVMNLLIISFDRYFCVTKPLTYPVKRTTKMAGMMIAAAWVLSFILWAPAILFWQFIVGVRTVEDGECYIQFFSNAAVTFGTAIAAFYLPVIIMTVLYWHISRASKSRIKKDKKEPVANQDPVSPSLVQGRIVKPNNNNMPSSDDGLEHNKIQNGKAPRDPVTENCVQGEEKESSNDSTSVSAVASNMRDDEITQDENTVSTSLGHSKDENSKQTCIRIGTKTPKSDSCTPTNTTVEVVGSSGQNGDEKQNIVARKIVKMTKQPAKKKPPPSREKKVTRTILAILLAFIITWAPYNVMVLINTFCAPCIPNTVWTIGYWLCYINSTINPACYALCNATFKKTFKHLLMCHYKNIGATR

[3] = molecular target: T2, Muscarinic acetylcholine receptor M2; remark: listed apart in the source
[4] = molecular target: T3, Corticotropin-releasing factor receptor 2 (Homo sapiens, UniProt Q13324)
T3 sequence (Q13324 whole entry): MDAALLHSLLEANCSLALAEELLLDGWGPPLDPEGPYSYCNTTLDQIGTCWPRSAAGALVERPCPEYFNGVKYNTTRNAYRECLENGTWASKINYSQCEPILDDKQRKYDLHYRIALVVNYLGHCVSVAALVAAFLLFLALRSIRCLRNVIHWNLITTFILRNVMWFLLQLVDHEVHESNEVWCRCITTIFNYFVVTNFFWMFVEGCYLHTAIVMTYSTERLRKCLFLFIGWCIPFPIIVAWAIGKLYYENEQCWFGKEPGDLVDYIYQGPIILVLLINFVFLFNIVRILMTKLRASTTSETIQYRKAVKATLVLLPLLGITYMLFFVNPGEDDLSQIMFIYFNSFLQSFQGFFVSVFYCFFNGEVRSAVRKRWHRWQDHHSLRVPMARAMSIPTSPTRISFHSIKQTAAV

[5] = molecular target: T4, Endothelin receptor type B (Homo sapiens, UniProt P24530)
T4 sequence (P24530 whole entry): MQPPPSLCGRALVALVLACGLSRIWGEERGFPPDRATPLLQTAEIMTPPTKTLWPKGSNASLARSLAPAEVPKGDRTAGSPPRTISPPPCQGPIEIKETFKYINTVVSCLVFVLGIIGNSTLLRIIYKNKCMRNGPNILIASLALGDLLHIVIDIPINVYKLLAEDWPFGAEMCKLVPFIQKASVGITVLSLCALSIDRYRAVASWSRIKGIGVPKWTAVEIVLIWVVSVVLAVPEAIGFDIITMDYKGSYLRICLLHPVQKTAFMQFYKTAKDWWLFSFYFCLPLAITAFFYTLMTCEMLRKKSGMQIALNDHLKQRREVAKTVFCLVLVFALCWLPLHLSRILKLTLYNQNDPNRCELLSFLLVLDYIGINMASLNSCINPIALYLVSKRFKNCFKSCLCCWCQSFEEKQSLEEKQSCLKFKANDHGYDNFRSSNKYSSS

[6] = molecular target: T5, Gastric inhibitory polypeptide receptor (Homo sapiens, UniProt P48546)
T5 sequence (P48546 whole entry): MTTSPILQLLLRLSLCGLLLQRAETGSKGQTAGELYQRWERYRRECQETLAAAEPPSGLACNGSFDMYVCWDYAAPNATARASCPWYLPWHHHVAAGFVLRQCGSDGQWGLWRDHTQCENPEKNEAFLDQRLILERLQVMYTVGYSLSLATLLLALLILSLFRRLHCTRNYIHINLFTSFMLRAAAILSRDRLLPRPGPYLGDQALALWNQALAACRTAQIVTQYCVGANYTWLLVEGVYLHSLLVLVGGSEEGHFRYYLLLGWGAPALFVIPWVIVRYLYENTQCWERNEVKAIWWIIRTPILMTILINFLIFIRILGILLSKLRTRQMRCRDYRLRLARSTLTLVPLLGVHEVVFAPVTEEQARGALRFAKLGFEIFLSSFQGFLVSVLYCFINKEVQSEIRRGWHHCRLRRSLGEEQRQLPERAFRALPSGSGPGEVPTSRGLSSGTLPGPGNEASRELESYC

[7] = molecular target: T6, Corticotropin-releasing factor receptor 1 (Homo sapiens, UniProt P34998)
T6 sequence (P34998 whole entry): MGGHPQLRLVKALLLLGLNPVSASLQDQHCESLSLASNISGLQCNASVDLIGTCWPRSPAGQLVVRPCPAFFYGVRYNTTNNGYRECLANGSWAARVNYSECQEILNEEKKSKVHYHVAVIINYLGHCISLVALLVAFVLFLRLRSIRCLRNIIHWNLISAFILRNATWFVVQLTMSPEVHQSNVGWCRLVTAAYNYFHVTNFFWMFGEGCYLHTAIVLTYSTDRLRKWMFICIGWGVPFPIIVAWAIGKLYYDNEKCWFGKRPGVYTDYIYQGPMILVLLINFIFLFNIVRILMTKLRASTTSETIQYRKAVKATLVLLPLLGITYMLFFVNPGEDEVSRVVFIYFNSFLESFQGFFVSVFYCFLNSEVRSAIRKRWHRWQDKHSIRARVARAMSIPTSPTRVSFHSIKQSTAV
Further: assay procedure not described here.

Row | Compound | AC50 [1] | AC50 [2] | AC50 [3] | AC50 [4] | AC50 [5] | AC50 [6] | AC50 [7]
1 | CO[C@]12C[C@@H](COC(=O)c3cncc(Br)c3)CN(C)[C@@H]1Cc1cn(C)c3cccc2c13 [NICERGOLINE] | 21.8 µM | 7.93 µM | – | – | – | – | –
2 | Clc1ccccc1C(c1ccccc1)(c1ccccc1)n1ccnc1 [CLOTRIMAZOLE] | – | – | > 10 µM | – | – | – | –
3 | COc1cccc(C2(O)CCCCC2CN(C)C)c1 (centres undefined) [TRAMADOL] | – | – | – | > 30 µM | > 30 µM | > 30 µM | > 30 µM
4 | THIMEROSAL | > 30 µM | > 30 µM | – | – | – | – | –
5 | CC/C(=C(\c1ccccc1)c1ccc(OCCN(C)C)cc1)c1ccccc1 [TAMOXIFEN] | – | – | > 10 µM | – | – | – | –
6 | Cc1c(OCC(F)(F)F)ccnc1C[S+]([O-])c1nc2ccccc2[nH]1 (centres undefined) [LANSOPRAZOLE] | – | – | – | > 30 µM | > 30 µM | > 30 µM | > 30 µM
